The source of these data is ChEMBL document CHEMBL1221226 (Nat Chem Biol, 2009).

Residues, ends and D or L forms follow the SMILES beside them.

Experiment [1] has as its target Glucagon-like peptide 1 receptor (Homo sapiens, UniProt P43220). Nature of the experiment: Agonist activity at GLP1R expressed in HEK293 cells assessed as stimulation of cAMP production by luciferase reporter gene assay. The format is functional, cell-based.
For experiment [2], the target named is Glucagon receptor (Homo sapiens, UniProt P47871). In words: Agonist activity at GCGR expressed in HEK293 cells assessed as stimulation of cAMP production by luciferase reporter gene assay. The format is functional, cell-based.
Chain of Glucagon receptor (P47871 whole entry): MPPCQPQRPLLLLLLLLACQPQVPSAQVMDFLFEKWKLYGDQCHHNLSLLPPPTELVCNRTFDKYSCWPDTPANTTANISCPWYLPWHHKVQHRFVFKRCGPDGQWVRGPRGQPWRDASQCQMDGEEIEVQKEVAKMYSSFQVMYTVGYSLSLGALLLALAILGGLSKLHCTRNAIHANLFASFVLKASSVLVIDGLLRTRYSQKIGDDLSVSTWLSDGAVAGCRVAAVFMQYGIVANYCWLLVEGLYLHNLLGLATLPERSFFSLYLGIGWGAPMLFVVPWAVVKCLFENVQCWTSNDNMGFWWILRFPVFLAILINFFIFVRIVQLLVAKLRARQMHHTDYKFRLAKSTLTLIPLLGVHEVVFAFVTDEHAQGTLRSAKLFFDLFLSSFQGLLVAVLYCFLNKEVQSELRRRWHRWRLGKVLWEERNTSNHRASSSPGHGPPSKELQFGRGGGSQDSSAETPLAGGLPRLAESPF

Chain of Glucagon-like peptide 1 receptor (P43220 whole entry): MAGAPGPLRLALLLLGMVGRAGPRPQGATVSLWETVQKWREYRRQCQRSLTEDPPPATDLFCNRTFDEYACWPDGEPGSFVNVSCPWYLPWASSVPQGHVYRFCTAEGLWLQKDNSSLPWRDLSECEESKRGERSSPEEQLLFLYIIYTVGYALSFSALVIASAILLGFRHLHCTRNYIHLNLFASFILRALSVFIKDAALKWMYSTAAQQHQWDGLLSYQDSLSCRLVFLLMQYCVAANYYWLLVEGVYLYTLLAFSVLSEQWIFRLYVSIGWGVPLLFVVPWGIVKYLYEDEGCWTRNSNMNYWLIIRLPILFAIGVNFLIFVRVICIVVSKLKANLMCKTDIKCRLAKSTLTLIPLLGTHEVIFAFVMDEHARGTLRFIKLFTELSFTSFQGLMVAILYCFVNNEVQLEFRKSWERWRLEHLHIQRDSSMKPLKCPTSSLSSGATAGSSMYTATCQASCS

For `CC[C@H](C)[C@H](NC(=O)[C@H](Cc1ccccc1)NC(=O)[C@H](CCC(=O)O)NC(=O)[C@H](CCCCN)NC(=O)[C@H](C)NC(=O)[C@H](C)NC(=O)[C@H](CCC(N)=O)NC(=O)[C@H](CCC(=O)O)NC(=O)[C@H](CC(=O)O)NC(=O)[C@H](CC(C)C)NC(=O)[C@H](Cc1ccc(O)cc1)NC(=O)[C@H](CCCCN)NC(=O)[C@H](CO)NC(=O)[C@H](Cc1ccc(O)cc1)NC(=O)[C@H](CC(=O)O)NC(=O)[C@H](CO)NC(=O)[C@@H](NC(=O)[C@H](Cc1ccccc1)NC(=O)[C@@H](NC(=O)CNC(=O)[C@H](CCC(=O)O)NC(=O)[C@H](CO)N[C@@H](Cc1cnc[nH]1)C(=O)O)[C@@H](C)O)[C@@H](C)O)C(=O)N[C@@H](C)C(=O)N[C@@H](Cc1c[nH]c2ccccc12)C(=O)N[C@@H](CC(C)C)C(=O)N[C@@H](CCSC)C(=O)N[C@@H](CC(N)=O)C(=O)N[C@H](C(=O)O)[C@@H](C)O`, the concentration giving a half-maximal response (EC50) in experiment [1] stood at 0.028 nM; in experiment [2], 2.4 nM.

For the molecule `CC[C@H](C)[C@H](NC(=O)[C@H](Cc1ccccc1)NC(=O)[C@H](CCC(=O)O)NC(=O)[C@H](CCCCN)NC(=O)[C@H](C)NC(=O)[C@H](C)NC(=O)[C@H](CCC(=O)O)NC(=O)[C@H](CCC(=O)O)NC(=O)[C@H](CCC(=O)O)NC(=O)[C@H](CC(C)C)NC(=O)[C@H](Cc1ccc(O)cc1)NC(=O)[C@H](CO)NC(=O)[C@H](CO)NC(=O)[C@@H](NC(=O)[C@H](CC(=O)O)NC(=O)[C@H](CO)NC(=O)[C@@H](NC(=O)[C@H](Cc1ccccc1)NC(=O)[C@@H](NC(=O)CNC(=O)[C@H](CCC(=O)O)NC(=O)[C@H](C)N[C@@H](Cc1cnc[nH]1)C(=O)O)[C@@H](C)O)[C@@H](C)O)C(C)C)C(=O)N[C@@H](C)C(=O)N[C@@H](Cc1c[nH]c2ccccc12)C(=O)N[C@@H](CC(C)C)C(=O)N[C@H](C(=O)N[C@@H](CCCCN)C(=O)NCC(=O)N[C@@H](CCN=C(N)N)C(N)=O)C(C)C`, the concentration giving a half-maximal response (EC50) in experiment [1] is 0.011 nM; in experiment [2], more than 1000 nM.

Regarding `CSCC[C@H](NC(=O)[C@H](CC(C)C)NC(=O)[C@H](Cc1c[nH]c2ccccc12)NC(=O)[C@H](CCC(N)=O)NC(=O)[C@@H](NC(=O)[C@H](Cc1ccccc1)NC(=O)[C@H](CC(=O)O)NC(=O)[C@H](CCCCN)NC(=O)[C@H](C)NC(=O)[C@H](CCCN=C(N)N)NC(=O)[C@H](CCCN=C(N)N)NC(=O)[C@H](CO)NC(=O)[C@H](CC(=O)O)NC(=O)[C@H](CC(C)C)NC(=O)[C@H](Cc1ccc(O)cc1)NC(=O)[C@H](CCCCN)NC(=O)[C@H](CO)NC(=O)[C@H](Cc1ccc(O)cc1)NC(=O)[C@H](CC(=O)O)NC(=O)[C@H](CO)NC(=O)[C@@H](NC(=O)[C@H](Cc1ccccc1)NC(=O)[C@@H](NC(=O)CNC(=O)[C@H](CCC(N)=O)NC(=O)[C@H](CO)N[C@@H](Cc1cnc[nH]1)C(=O)O)[C@@H](C)O)[C@@H](C)O)C(C)C)C(=O)N[C@@H](CC(N)=O)C(=O)N[C@H](C(N)=O)[C@@H](C)O`, the EC50 in experiment [1] is 0.13 nM; in experiment [2] it was 0.12 nM.

As for `CSCC[C@H](NC(=O)[C@H](CC(C)C)NC(=O)[C@H](Cc1c[nH]c2ccccc12)NC(=O)[C@H](CCC(N)=O)NC(=O)[C@@H](NC(=O)[C@H](Cc1ccccc1)NC(=O)[C@H](CC(=O)O)NC(=O)[C@H](CCC(N)=O)NC(=O)[C@H](C)NC(=O)[C@H](CCCN=C(N)N)NC(=O)[C@H](CCCN=C(N)N)NC(=O)[C@@H]1CCC(=O)NCCCC[C@H](NC(=O)[C@H](CO)NC(=O)[C@H](Cc2ccc(O)cc2)NC(=O)[C@H](CC(=O)O)NC(=O)[C@H](CO)NC(=O)[C@@H](NC(=O)[C@H](Cc2ccccc2)NC(=O)[C@@H](NC(=O)CNC(=O)[C@H](CCC(N)=O)NC(=O)[C@H](CO)N[C@@H](Cc2cnc[nH]2)C(=O)O)[C@@H](C)O)[C@@H](C)O)C(=O)N[C@@H](Cc2ccc(O)cc2)C(=O)N[C@@H](CC(C)C)C(=O)N[C@@H](CC(=O)O)C(=O)N1)C(C)C)C(=O)N[C@@H](CC(N)=O)C(=O)N[C@H](C(=O)O)[C@@H](C)O`, the figures for the concentration giving a half-maximal response (EC50) in experiment [1] and in experiment [2] were 0.051 nM and 0.046 nM, respectively.

Turning to `CSCC[C@H](NC(=O)[C@H](CC(C)C)NC(=O)[C@H](Cc1c[nH]c2ccccc12)NC(=O)[C@H](CCC(N)=O)NC(=O)[C@@H](NC(=O)[C@H](Cc1ccccc1)NC(=O)[C@H](CC(=O)O)NC(=O)[C@@H]1CCCCNC(=O)CC[C@H](NC(=O)[C@H](CC(=O)O)NC(=O)[C@H](CC(C)C)NC(=O)[C@H](Cc2ccc(O)cc2)NC(=O)[C@H](CCCCN)NC(=O)[C@H](CO)NC(=O)[C@H](Cc2ccc(O)cc2)NC(=O)[C@H](CC(=O)O)NC(=O)[C@H](CO)NC(=O)[C@@H](NC(=O)[C@H](Cc2ccccc2)NC(=O)[C@@H](NC(=O)CNC(=O)[C@H](CCC(N)=O)NC(=O)[C@H](CO)N[C@@H](Cc2cnc[nH]2)C(=O)O)[C@@H](C)O)[C@@H](C)O)C(=O)N[C@@H](CCCNC(=N)N)C(=O)N[C@@H](CCCNC(=N)N)C(=O)N[C@@H](C)C(=O)N1)C(C)C)C(=O)N[C@@H](CC(N)=O)C(=O)N[C@H](C(=O)O)[C@@H](C)O`, the EC50 in experiment [1] was determined as 0.049 nM; in experiment [2], 0.058 nM.

For the molecule `CSCC[C@H](NC(=O)[C@H](CC(C)C)NC(=O)[C@H](Cc1c[nH]c2ccccc12)NC(=O)[C@@H]1CCC(=O)NCCCC[C@H](NC(=O)[C@H](C)NC(=O)[C@H](CCCN=C(N)N)NC(=O)[C@H](CCCN=C(N)N)NC(=O)[C@H](CO)NC(=O)[C@H](CC(=O)O)NC(=O)[C@H](CC(C)C)NC(=O)[C@H](Cc2ccc(O)cc2)NC(=O)[C@H](CCCCN)NC(=O)[C@H](CO)NC(=O)[C@H](Cc2ccc(O)cc2)NC(=O)[C@H](CC(=O)O)NC(=O)[C@H](CO)NC(=O)[C@@H](NC(=O)[C@H](Cc2ccccc2)NC(=O)[C@@H](NC(=O)CNC(=O)[C@H](CCC(N)=O)NC(=O)[C@H](CO)N[C@@H](Cc2cnc[nH]2)C(=O)O)[C@@H](C)O)[C@@H](C)O)C(=O)N[C@@H](CC(=O)O)C(=O)N[C@@H](Cc2ccccc2)C(=O)N[C@@H](C(C)C)C(=O)N1)C(=O)N[C@@H](CC(N)=O)C(=O)N[C@H](C(=O)O)[C@@H](C)O`, the concentration for a half-maximal effect (EC50) in experiment [1] was determined as 0.24 nM; in experiment [2], 0.078 nM.

For the molecule `CSCC[C@@H]1NC(=O)[C@H](CC(C)C)NC(=O)[C@H](Cc2c[nH]c3ccccc23)NC(=O)[C@@H](NC(=O)[C@@H](NC(=O)[C@H](Cc2ccccc2)NC(=O)[C@H](CC(=O)O)NC(=O)[C@H](CCC(N)=O)NC(=O)[C@H](C)NC(=O)[C@H](CCCN=C(N)N)NC(=O)[C@H](CCCN=C(N)N)NC(=O)[C@H](CO)NC(=O)[C@H](CC(=O)O)NC(=O)[C@H](CC(C)C)NC(=O)[C@H](Cc2ccc(O)cc2)NC(=O)[C@H](CCCCN)NC(=O)[C@H](CO)NC(=O)[C@H](Cc2ccc(O)cc2)NC(=O)[C@H](CC(=O)O)NC(=O)[C@H](CO)NC(=O)[C@@H](NC(=O)[C@H](Cc2ccccc2)NC(=O)[C@@H](NC(=O)CNC(=O)[C@H](CCC(N)=O)NC(=O)[C@H](CO)N[C@@H](Cc2cnc[nH]2)C(=O)O)[C@@H](C)O)[C@@H](C)O)C(C)C)CCC(=O)NCCCC[C@@H](C(=O)N[C@H](C(=O)O)[C@@H](C)O)NC1=O`, the EC50 came to 0.18 nM in experiment [1] and 0.076 nM in experiment [2].

With `CSCC[C@H](NC(=O)[C@H](CC(C)C)NC(=O)[C@H](Cc1c[nH]c2ccccc12)NC(=O)[C@H](CCC(N)=O)NC(=O)[C@@H](NC(=O)[C@H](Cc1ccccc1)NC(=O)[C@H](CC(=O)O)NC(=O)[C@H](CCC(N)=O)NC(=O)[C@H](C)NC(=O)[C@H](CCCNC(=N)N)NC(=O)[C@H](CCCNC(=N)N)NC(=O)[C@H](CCC(=O)O)NC(=O)[C@H](CCC(=O)O)NC(=O)[C@H](CC(C)C)NC(=O)[C@H](Cc1ccc(O)cc1)NC(=O)[C@H](CO)NC(=O)[C@H](CO)NC(=O)[C@@H](NC(=O)[C@H](CC(=O)O)NC(=O)[C@H](CO)NC(=O)[C@@H](NC(=O)[C@H](Cc1ccccc1)NC(=O)[C@@H](NC(=O)CNC(=O)[C@H](CCC(=O)O)NC(=O)[C@H](C)NC(=O)[C@@H](N)Cc1cnc[nH]1)[C@@H](C)O)[C@@H](C)O)C(C)C)C(C)C)C(=O)N[C@@H](CC(N)=O)C(=O)N[C@H](C(=O)O)[C@@H](C)O` (H-HAEGTFTSDVSSYLEERRAQDFVQWLMNT-OH), the EC50 in experiment [1] (hek293) is 0.18 nM; in experiment [2] (hek293), 50 nM.

Consider `CC[C@H](C)[C@H](NC(=O)[C@H](Cc1ccccc1)NC(=O)[C@H](CCC(=O)O)NC(=O)[C@H](CCCCN)NC(=O)[C@H](C)NC(=O)[C@H](C)NC(=O)[C@H](CCC(N)=O)NC(=O)[C@H](CCC(=O)O)NC(=O)[C@H](CC(=O)O)NC(=O)[C@H](CC(C)C)NC(=O)[C@H](Cc1ccc(O)cc1)NC(=O)[C@H](CCCCN)NC(=O)[C@H](CO)NC(=O)[C@H](Cc1ccc(O)cc1)NC(=O)[C@H](CC(=O)O)NC(=O)[C@H](CO)NC(=O)[C@@H](NC(=O)[C@H](Cc1ccccc1)NC(=O)[C@@H](NC(=O)CNC(=O)[C@H](CCC(N)=O)NC(=O)[C@H](CO)NC(=O)[C@@H](N)Cc1cnc[nH]1)[C@@H](C)O)[C@@H](C)O)C(=O)N[C@@H](C)C(=O)N[C@@H](Cc1c[nH]c2ccccc12)C(=O)N[C@@H](CC(C)C)C(=O)N[C@@H](CCSC)C(=O)N[C@@H](CC(N)=O)C(=O)N[C@H](C(=O)O)[C@@H](C)O` (H-HSQGTFTSDYSKYLDEQAAKEFIAWLMNT-OH), for which the results for the EC50 in experiment [1] (hek293) and in experiment [2] (hek293) were 0.026 nM and 0.068 nM, respectively.

Consider `CC[C@H](C)[C@H](NC(=O)[C@H](Cc1ccccc1)NC(=O)[C@H](CCC(=O)O)NC(=O)[C@H](CCCCN)NC(=O)[C@H](C)NC(=O)[C@H](C)NC(=O)[C@H](CCC(N)=O)NC(=O)[C@H](CCC(=O)O)NC(=O)[C@H](CC(=O)O)NC(=O)[C@H](CC(C)C)NC(=O)[C@H](Cc1ccc(O)cc1)NC(=O)[C@H](CCCCN)NC(=O)[C@H](CO)NC(=O)[C@H](Cc1ccc(O)cc1)NC(=O)[C@H](CC(=O)O)NC(=O)[C@H](CO)NC(=O)[C@@H](NC(=O)[C@H](Cc1ccccc1)NC(=O)[C@@H](NC(=O)CNC(=O)[C@H](CCC(N)=O)NC(=O)[C@H](CO)NC(=O)[C@@H](N)Cc1cnc[nH]1)[C@@H](C)O)[C@@H](C)O)C(=O)N[C@@H](C)C(=O)N[C@@H](Cc1c[nH]c2ccccc12)C(=O)N[C@@H](CC(C)C)C(=O)N[C@H](C(=O)N[C@@H](CCCCN)C(=O)NCC(=O)O)C(C)C` (H-HSQGTFTSDYSKYLDEQAAKEFIAWLVKG-OH), for which the figures for the EC50 in experiment [1] (hek293) and in experiment [2] (hek293) were 0.015 nM and 0.47 nM, respectively.
